Laboratory results: ChEMBL document CHEMBL3885881, “DrugMatrix”

Species: Rattus norvegicus
Experiment: DrugMatrix - Regimen: Daily Repeat
Type: toxicity, organism-based, Sprague-Dawley
Parameters: regimen Daily Repeat, gender Male, age 6-8 weeks
Details: in vivo, po, route oral GAVAGE, vehicle .5 % CMC; for ABSOLUTE BASOPHIL / ABSOLUTE EOSINOPHIL / ABSOLUTE LYMPHOCYTE / ABSOLUTE MONOCYTE / ABSOLUTE SEGMENTED NEUTROPHIL / BASOPHIL / EOSINOPHIL / ERYTHROCYTE COUNT / HEMATOCRIT / HEMOGLOBIN / LEUKOCYTE COUNT / LYMPHOCYTE / MEAN CORPUSCULAR HEMOGLOBIN / MEAN CORPUSCULAR HEMOGLOBIN CONCENTRATION / MEAN CORPUSCULAR VOLUME / MONOCYTE / NEUTROPHIL / NUCLEATED RED BLOOD CELLS / PLATELET COUNT: tissue Blood; for ALANINE AMINOTRANSFERASE / ALBUMIN / ALKALINE PHOSPHATASE / ASPARTATE AMINOTRANSFERASE / BLOOD UREA NITROGEN / CARBON DIOXIDE / CHLORIDE / CHOLESTEROL / CREATINE PHOSPHOKINASE / CREATININE / GLUCOSE / LACTATE DEHYDROGENASE / LIPASE / PHOSPHORUS / POTASSIUM / SODIUM / TOTAL BILIRUBIN / TOTAL PROTEIN / URIC ACID: tissue Plasma
[1] = 500 mg/kg, 72 h, dose level Low, time 3 day
[2] = 500 mg/kg, 120 h, dose level Low, time 5 day
[3] = 2000 mg/kg, 72 h, dose level High, time 3 day
[4] = 2000 mg/kg, 120 h, dose level High, time 5 day

NC[C@H]1CC[C@H](C(=O)O)CC1 [TRANEXAMIC ACID]
ABSOLUTE BASOPHIL [1]: 0 CELLS/uL | ABSOLUTE EOSINOPHIL [1]: 94.67 CELLS/uL | ABSOLUTE LYMPHOCYTE [1]: 11832.33 CELLS/uL | ABSOLUTE MONOCYTE [1]: 147 CELLS/uL | ABSOLUTE SEGMENTED NEUTROPHIL [1]: 2626 CELLS/uL | BASOPHIL [1]: 0% | EOSINOPHIL [1]: 0.67% | ERYTHROCYTE COUNT [1]: 5.82 x10E6/uL | HEMATOCRIT [1]: 36.4% | HEMOGLOBIN [1]: 14.33 G/DL | LEUKOCYTE COUNT [1]: 14.7 x10E3/uL | LYMPHOCYTE [1]: 80.33% | MEAN CORPUSCULAR HEMOGLOBIN [1]: 24.63 pg | MEAN CORPUSCULAR HEMOGLOBIN CONCENTRATION [1]: 39.43 G/DL | MEAN CORPUSCULAR VOLUME [1]: 62.5 fL | MONOCYTE [1]: 1% | NEUTROPHIL [1]: 18% | NUCLEATED RED BLOOD CELLS [1]: 0 /100WBC | PLATELET COUNT [1]: 1287 x10E3/uL | ALANINE AMINOTRANSFERASE [1]: 49.33 u/L | ALBUMIN [1]: 4.3 G/DL | ALKALINE PHOSPHATASE [1]: 364.33 u/L | ASPARTATE AMINOTRANSFERASE [1]: 83 u/L | BLOOD UREA NITROGEN [1]: 13.67 mg/dL | CARBON DIOXIDE [1]: 25.33 mmol/L | CHLORIDE [1]: 102 MEQ/L | CHOLESTEROL [1]: 81 mg/dL | CREATINE PHOSPHOKINASE [1]: 246 u/L | CREATININE [1]: 0.17 mg/dL | GLUCOSE [1]: 155 mg/dL | LACTATE DEHYDROGENASE [1]: 225.67 u/L | LIPASE [1]: 10 u/L | PHOSPHORUS [1]: 14.07 mg/dL | POTASSIUM [1]: 6.58 MEQ/L | SODIUM [1]: 145.07 MEQ/L | TOTAL BILIRUBIN [1]: 0.2 mg/dL | TOTAL PROTEIN [1]: 6.07 G/DL | URIC ACID [1]: 1.83 mg/dL | ABSOLUTE BASOPHIL [2]: 0 CELLS/uL | ABSOLUTE EOSINOPHIL [2]: 0 CELLS/uL | ABSOLUTE LYMPHOCYTE [2]: 10774 CELLS/uL | ABSOLUTE MONOCYTE [2]: 92 CELLS/uL | ABSOLUTE SEGMENTED NEUTROPHIL [2]: 2034 CELLS/uL | BASOPHIL [2]: 0% | EOSINOPHIL [2]: 0% | ERYTHROCYTE COUNT [2]: 5.74 x10E6/uL | HEMATOCRIT [2]: 35.7% | HEMOGLOBIN [2]: 14.13 G/DL | LEUKOCYTE COUNT [2]: 12.9 x10E3/uL | LYMPHOCYTE [2]: 83.67% | MEAN CORPUSCULAR HEMOGLOBIN [2]: 24.67 pg | MEAN CORPUSCULAR HEMOGLOBIN CONCENTRATION [2]: 39.57 G/DL | MEAN CORPUSCULAR VOLUME [2]: 62.33 fL | MONOCYTE [2]: 0.67% | NEUTROPHIL [2]: 15.67% | NUCLEATED RED BLOOD CELLS [2]: 0 /100WBC | PLATELET COUNT [2]: 1198 x10E3/uL | ALANINE AMINOTRANSFERASE [2]: 58.67 u/L | ALBUMIN [2]: 4.17 G/DL | ALKALINE PHOSPHATASE [2]: 364.67 u/L | ASPARTATE AMINOTRANSFERASE [2]: 90.67 u/L | BLOOD UREA NITROGEN [2]: 15 mg/dL | CARBON DIOXIDE [2]: 25.67 mmol/L | CHLORIDE [2]: 102 MEQ/L | CHOLESTEROL [2]: 61 mg/dL | CREATINE PHOSPHOKINASE [2]: 280.67 u/L | CREATININE [2]: 0.21 mg/dL | GLUCOSE [2]: 154 mg/dL | LACTATE DEHYDROGENASE [2]: 250.33 u/L | LIPASE [2]: 9.33 u/L | PHOSPHORUS [2]: 12.3 mg/dL | POTASSIUM [2]: 6.07 MEQ/L | SODIUM [2]: 144.43 MEQ/L | TOTAL BILIRUBIN [2]: 0.17 mg/dL | TOTAL PROTEIN [2]: 5.9 G/DL | URIC ACID [2]: 1.53 mg/dL | ABSOLUTE BASOPHIL [3]: 0 CELLS/uL | ABSOLUTE EOSINOPHIL [3]: 131 CELLS/uL | ABSOLUTE LYMPHOCYTE [3]: 11124 CELLS/uL | ABSOLUTE MONOCYTE [3]: 58.67 CELLS/uL | ABSOLUTE SEGMENTED NEUTROPHIL [3]: 1786.33 CELLS/uL | BASOPHIL [3]: 0% | EOSINOPHIL [3]: 1% | ERYTHROCYTE COUNT [3]: 5.38 x10E6/uL | HEMATOCRIT [3]: 32.57% | HEMOGLOBIN [3]: 12.97 G/DL | LEUKOCYTE COUNT [3]: 13.1 x10E3/uL | LYMPHOCYTE [3]: 84% | MEAN CORPUSCULAR HEMOGLOBIN [3]: 24.13 pg | MEAN CORPUSCULAR HEMOGLOBIN CONCENTRATION [3]: 39.83 G/DL | MEAN CORPUSCULAR VOLUME [3]: 60.57 fL | MONOCYTE [3]: 0.33% | NEUTROPHIL [3]: 14.67% | NUCLEATED RED BLOOD CELLS [3]: 0 /100WBC | PLATELET COUNT [3]: 1338.33 x10E3/uL | ALANINE AMINOTRANSFERASE [3]: 49.67 u/L | ALBUMIN [3]: 3.9 G/DL | ALKALINE PHOSPHATASE [3]: 293.67 u/L | ASPARTATE AMINOTRANSFERASE [3]: 92 u/L | BLOOD UREA NITROGEN [3]: 15.33 mg/dL | CARBON DIOXIDE [3]: 25.33 mmol/L | CHLORIDE [3]: 100 MEQ/L | CHOLESTEROL [3]: 71.33 mg/dL | CREATINE PHOSPHOKINASE [3]: 923.33 u/L | CREATININE [3]: 0.15 mg/dL | GLUCOSE [3]: 161 mg/dL | LACTATE DEHYDROGENASE [3]: 154.33 u/L | LIPASE [3]: 10.33 u/L | PHOSPHORUS [3]: 12.03 mg/dL | POTASSIUM [3]: 8.02 MEQ/L | SODIUM [3]: 142.27 MEQ/L | TOTAL BILIRUBIN [3]: 0.1 mg/dL | TOTAL PROTEIN [3]: 5.47 G/DL | URIC ACID [3]: 1.53 mg/dL | ABSOLUTE BASOPHIL [4]: 0 CELLS/uL | ABSOLUTE EOSINOPHIL [4]: 40.33 CELLS/uL | ABSOLUTE LYMPHOCYTE [4]: 11921 CELLS/uL | ABSOLUTE MONOCYTE [4]: 0 CELLS/uL | ABSOLUTE SEGMENTED NEUTROPHIL [4]: 1438.67 CELLS/uL | BASOPHIL [4]: 0% | EOSINOPHIL [4]: 0.33% | ERYTHROCYTE COUNT [4]: 5.89 x10E6/uL | HEMATOCRIT [4]: 34.97% | HEMOGLOBIN [4]: 14.13 G/DL | LEUKOCYTE COUNT [4]: 13.4 x10E3/uL | LYMPHOCYTE [4]: 89% | MEAN CORPUSCULAR HEMOGLOBIN [4]: 24.03 pg | MEAN CORPUSCULAR HEMOGLOBIN CONCENTRATION [4]: 40.43 G/DL | MEAN CORPUSCULAR VOLUME [4]: 59.4 fL | MONOCYTE [4]: 0% | NEUTROPHIL [4]: 10.67% | NUCLEATED RED BLOOD CELLS [4]: 0 /100WBC | PLATELET COUNT [4]: 1475.33 x10E3/uL | ALANINE AMINOTRANSFERASE [4]: 55 u/L | ALBUMIN [4]: 4.23 G/DL | ALKALINE PHOSPHATASE [4]: 354.33 u/L | ASPARTATE AMINOTRANSFERASE [4]: 79 u/L | BLOOD UREA NITROGEN [4]: 17.33 mg/dL | CARBON DIOXIDE [4]: 25.67 mmol/L | CHLORIDE [4]: 102 MEQ/L | CHOLESTEROL [4]: 64.67 mg/dL | CREATINE PHOSPHOKINASE [4]: 364.33 u/L | CREATININE [4]: 0.17 mg/dL | GLUCOSE [4]: 150 mg/dL | LACTATE DEHYDROGENASE [4]: 135.67 u/L | LIPASE [4]: 10 u/L | PHOSPHORUS [4]: 12.53 mg/dL | POTASSIUM [4]: 7.4 MEQ/L | SODIUM [4]: 145 MEQ/L | TOTAL BILIRUBIN [4]: 0.2 mg/dL | TOTAL PROTEIN [4]: 6.1 G/DL | URIC ACID [4]: 2.6 mg/dL
